Results on 5 molecules are retold here after US20070238745A1, “PI3K-Akt Pathway Inhibitors” (UNIVERSITY OF SOUTH FLORIDA, priority 2006, published 2007).

The subject of data set [1] is LNCaP cells. The conditions noted are these: cited from earlier work.
A further data set relates to 151 kinases. The note with it: cited from earlier work.
Data set [2] relates to lung, breast, and B cell cancer. The note with it: cited from earlier work.
Data set [3] relates to malignant tumors refractory to conventional treatments. The note with it: patients with malignant tumors refractory to conventional treatments; cited from earlier work.
The next data set relates to Bcl-2. In words: Western blotting: Bcl-2 expression in PC3 cells. The conditions noted are these: longer exposure (20 hrs).
Data set [4] has as its system LNCaP cells. In words: PARP cleavage by Western blotting in LNCaP cells. Type of data set: cell-based, human. Here is the method: Cell lysates were analysed for PARP cleavage by Western blotting. […] Lysates were analysed by Western blotting. […] Lysates were analysed by Western blotting. In FIG. 1D LNCaP cells were transfected with pcDNA3 (vector) or pcDNA3 encoding dn-AKT plasmid. […] Lysates were analysed by Western blotting.
(§1) Prostate cancer cell lines used in our studies include LNCaP, LNCaP-Rf, PC3 and PC3-MM2. […] LNCaP cells and PC3 cells were derived from a lymph node metastasis and a bone metastasis, respectively, of human prostate tumors. All these cell lines express constitutively active AKT. To distinguish the effects of our therapeutics between normal and tumor cells, we also used an immortalized but non-tumorigenic prostate epithelial cell line, RWPE, in our study. All experiments were performed on growing cells in medium containing 10% fetal calf serum.
Apoptosis was monitored by cleavage of the caspase-3 substrate poly (ADP-ribose) polymerase (PARP).

The conditions of data set [5]: orally, 3 times a day at 200 mg/kg or 2 times a day at 500 mg/kg; cited from earlier work.
The conditions of data set [6]: cited from earlier work.
Data set [7] has as its system HTLV-I transformed T cell lines (MT-2). The conditions noted are these: cited from earlier work.
The next data set deals with PC3-MM2 cells. In words: Cell growth by trypan-blue exclusion, PC3-MM2. The class given is cell-based, human. The note with it: 72 hr. Here is the method: (§2) FIG. 3 is a series of graphs illustrating the effects of drugs on growth potential of prostate cancer cells. Cells were treated with various inhibitors for 72 hrs and cell growth was enumerated by trypan-blue exclusion.
as §1
(§3) Further, effects of the combination treatment in altering colony formation potential were examined. For this purpose, cells were exposed to drugs for 24 or 46 hrs and trypsinized. Ten thousand viable cells were replated and allowed to grow colonies for 2 weeks.

Data set [8] relates to XIAP. The conditions noted are these: LNCaP, LNCaP-Rf, and PC3 cells; cited from earlier work.
For data set [9], the system named is PC3 cells. In words: Apoptosis of PC3 cells (DNA fragmentation Cell Death ELISA, Tunel). The conditions noted are these: 20 mM LY, 20 mM API-2, 50 mM roscovitine or combination for 14 hr (ELISA); 40 hrs (Tunel). The class given is cell-based, human. As to the method:
Tunel positive cells are shown. […] Cells were incubated with Hoechest stain for 5 mins and examined using a fluorescent microscope. […] Amounts of cytosolic histone associated DNA fragments were measured.
as §1

The subject of the next data set is Cdk7/Cdk9. In words: Western blotting: phosphorylation of RNA-Pol II in PC3 cells. The conditions noted are these: short-term exposure (8 hrs).
In data set [10] the test system is PC3 cells. In words: Cell growth by trypan-blue exclusion, PC3. Type of data set: cell-based, human. The conditions noted are these: 72 hr. Here is the method:
as §2, §1, §3

The next data set concerns PC3 and DU145 cells. The note with it: cited from earlier work.
Data set [11] deals with melanoma cells expressing wild-type p53 (A375, 888-Mel, 624-Mel). The conditions noted are these: melanoma cells A375, 888-Mel, 624-Mel (wild-type p53); cited from earlier work.
The next data set deals with p53. The conditions noted are these: LNCaP and LNCaP-Rf cells; cited from earlier work.
In a further data set the test system is LNCaP, LNCaP-Rf. The note with it: LNCaP-Rf prostate cancer cells, roscovitine alone; cited from earlier work.
The subject of data set [12] is Bim. The conditions noted are these: PC3 cells, 8 hrs; roscovitine in either the presence or absence of API-2. Here is the method: (§4) Lysates were analysed by Western blotting. […] Lysates were analysed by Western blotting.
Data set [13] concerns XIAP. The conditions noted are these: PC3 cells, longer exposure (20 hrs), single agent. As to the method: as §4
The subject of data set [14] is Bim. In words: Amounts of Bim in LNCaP and PC3 cells. The class given is cell-based, human. The source says:
How AKT inhibitors facilitate the mitochondria-dependent apoptosis of prostate cancer cells remains to be determined. Potential mechanisms include accumulation of the BH3-only protein Bim and dephosphorylation and activation of Bad. The FOXO factors activate the Bim promoter, and AKT phosphorylates Bim, which may prevent its degradation.

For data set [15] the following is noted: cited from earlier work. The source holds these as a separate data set.
The next data set concerns LNCaP, LAPC4 and LAPC9. The note with it: most prostate cancer cell lines, including LNCaP; cited from earlier work.

Each structure is given as a SMILES string. Entries after “also recorded” stand apart in the source; their conditions may differ. Read-outs that look alike come from different tables or passages of the source.

Experimental for Bcl-2: (§5) Lysates were analysed by Western blotting. […] Cells were exposed to drugs for 20 hrs. Lysates were analysed by Western blotting.
Experimental for Cdk7/Cdk9: as §5

With `Cc1ccc(C(=O)Cn2c3c(sc2=N)CCCC3)cc1` [pifithrin-α], the “rescue from roscovitine-induced apoptosis” value in the data set with LNCaP cells [1] is “rescues LNCaP cells”.
Turning to `CC[C@H](CO)Nc1nc(NCc2ccccc2)c2ncn(C(C)C)c2n1` [R-roscovitine, 2-(1-R-hydroxymethylpropylamino)-6-benzylamino-9-iso-propylpurine], the “binding among 151 kinases examined” value in the data set on 151 kinases was “bound only its known CDK targets and pyridoxal kinase”. Further, in data set [2], the “responses, Phase II clinical trials” value is listed as “partial responses lasting more than four months” and the “toxicity, Phase II clinical trials” value is “limited toxicity”. Also, in data set [3], the “toxicity, Phase I trial” value is on record as “toxicity at higher doses” and the “tumor responses, Phase I trial” value is “no objective tumor responses”.
As to `CCC(CO)Nc1nc(NCc2ccccc2)c2ncn(C(C)C)c2n1` (stereo not shown) [roscovitine, 2-(1-ethyl-2-hydroxyethylamino)-6-benzylamino-9-isopropylpurine], in the data set with Bcl-2, the Bcl-2 expression result is reported as “not”. Besides, the PARP cleavage entry with LNCaP cells [4] is “did not induce any PARP cleavage”. Besides, in the data set with LNCaP cells [4], the “PARP cleavage in the presence as compared with the absence of dominant-negative AKT” value is listed as “enhanced PARP cleavage”. In addition, the “exposure time at which robust PARP cleavage was evident” value in the data set with LNCaP cells [4] is reported as “more than 9 hr”. The “toxicity or adverse effects” value in data set [5] is “without any toxicity or adverse effects”. In addition, the “tissue distribution / tumor uptake” value in data set [6] (in vivo) is listed as “highest tumor uptake”. For the same molecule, the clearance from plasma entry in [6] (via oxidative metabolism of the side chain hydroxyl group, excreted in urine) was “clears slowly”. The apoptosis result in [7] is “readily induces apoptosis”; in the data set with PC3 and DU145 cells, “relatively resistant and not”; in [11] it was “apoptose; also recorded: readily induces apoptosis”; with LNCaP, LNCaP-Rf, “can induce apoptosis; also recorded: readily induces apoptosis”. Also, the cell growth result with PC3-MM2 cells and in the data set with PC3 cells [10] was “inhibit cell growth” each time. For the same molecule, in the data set on XIAP [8], the XIAP expression result was “reduces XIAP expression”. In addition, the “apoptosis of PC3 cells” value with PC3 cells [9] is “not”. In addition, the “activity of Cdk7/Cdk9 as measured by phosphorylation of RNA-Pol II” value in the data set on Cdk7/Cdk9 is recorded as “reduced activity”. For the same molecule, the “apoptosis when supplied with roscovitine and wild-type p53” value in the data set on PC3 and DU145 cells (DU145 and PC3 cells) is listed as “efficiently apoptose”. Moreover, the p53 abundance result in the data set with p53 is “increases p53 abundance”. Further, in the data set with Bim [12], the Bim abundance result is recorded as “did not alter Bim abundance”. The “XIAP expression / abundance” value in the data set on XIAP [13] is given as “reduced expression of XIAP”.
As for `O=c1cc(N2CCOCC2)oc2c(-c3ccccc3)cccc12` [LY, 2-(4-morpholinyl)-8-phenyl-4H-1-benzopyran-4-one], in the data set with Bim [14], the “amounts of Bim” value is reported as “increase amounts of Bim”. Moreover, in the data set on LNCaP cells [4] (LNCaP cells, 8 hours, cleavage of caspase-3 substrate PARP, 10 uM LY294002 or 0.5 uM Wortmannin), the PARP cleavage entry is “did not induce any PARP cleavage”. In addition, the in vivo half-life entry in data set [15] is recorded as “short in vivo half-life”. Moreover, the cell growth result in the data set with PC3-MM2 cells and in the data set on PC3 cells [10] was “inhibit cell growth” in each case. In the data set on PC3 cells [9], the “apoptosis of PC3 cells” value is on record as “not”. Besides, in the data set with LNCaP, LAPC4 and LAPC9, the apoptotic response result is “induce a potent apoptotic response”.
`COC[C@H]1OC(=O)c2coc3c2[C@@]1(C)C1=C(C3=O)[C@@H]2CCC(=O)[C@@]2(C)C[C@H]1OC(C)=O` [wortmannin]: the in vivo half-life entry in data set [15] was “short in vivo half-life”.
